From patent US7943629B2, “Sulphimides as protein kinase inhibitors” (Bayer Schering Pharma AG, priority 2006, dated 2011)

Columns and labels:
[1] = test system: MCF7 breast tumour cells; assay: MCF7 proliferation assay; format: cell-based, human; conditions: for IC50: Homo sapiens, MCF7, 96 h, 4 days incubation, crystal violet staining; for antiproliferative activity, MCF7 (in words): summary of Tab. 2
Protocol: Cultivated human MCF7 breast tumour cells (ATCC HTB-22) were plated out in a density of 5000 cells/measurement point in 200 μl of growth medium (RPMI1640, 10% foetal calf serum, 2 mU/mL insulin, 0.1 nM oestradiol) in a 96-well multititre plate. After 24 hours, the cells from a plate (zero plate) were stained with crystal violet (see below), while the medium in the other plates was replaced by fresh culture medium (200 μl) to which the test substances had been added in various concentrations (0 μM, and in the range 0.1-30 μM; the final concentration of the solvent dimethyl sulphoxide was 0.5%). The cells were incubated in the presence of the test substances for 4 days. The cell proliferation was determined by staining the cells with crystal violet: the cells were fixed by adding 20 μl/measurement point of an 11% strength glutaraldehyde solution at room temperature for 15 min. After the fixed cells had been washed three times with water, the plates were dried at room temperature. The cells were stained by adding 100 μl/measurement point of a 0.1% strength crystal violet solution (pH adjusted to pH 3 by adding acetic acid). After the stained cells had been washed three times with water, the plates were dried at room temperature. The dye was dissolved by adding 100 μl/measurement point of a 10% strength acetic acid solution, and the extinction was determined by photometry at a wavelength of 595 nm. The percentage change in cell growth was calculated by normalizing the measurements to the extinctions of the zero point plate (=0%) and the extinction of the untreated (0 μM) cells (=100%). The IC50 values were determined by means of a 4-parameter fit using the company's own software.

[2] = target: T1, CDK2/CycE (Homo sapiens, UniProt P24941); assay: CDK2/CycE kinase assay; format: biochemical; conditions: 0.5 μM ATP, histone IIIS, 22° C., 10 min
T1 construct: GST; purchased ProQinase GmbH, Freiburg; host or cells: baculovirus-infected insect cells (Sf9)
Protocol: Recombinant CDK2- and CycE-GST fusion proteins, purified from baculovirus-infected insect cells (Sf9), were purchased from ProQinase GmbH, Freiburg. The histone IIIS used as kinase substrate was purchased from Sigma.
(§1) CDK2/CycE (50 ng/measurement point) was incubated in the presence of various concentrations of test substances (0 μM, and within the range 0.01-100 μM) in assay buffer [50 mM Tris/HCl pH 8.0, 10 mM MgCl2, 0.1 mM Na ortho-vanadate, 1.0 mM dithiothreitol, 0.5 μM ATP, 10 μg/measurement point histone IIIS, 0.2 μCi/measurement point ^33P-gamma-ATP, 0.05% NP40, 1.25% dimethyl sulphoxide] at 22° C. for 10 min. The reaction was stopped by adding EDTA solution (250 mM, pH 8.0, 15 μl/measurement point).
15 μl of each reaction mixture were loaded onto P30 filter strips (from Wallac), and non-incorporated ^33P-ATP was removed by washing the filter strips three times in 0.5% strength phosphoric acid for 10 min each time.
(§2) After the filter strips had been dried at 70° C. for 1 hour, the filter strips were covered with scintillator strips (MeltiLex™ A, from Wallac) and baked at 90° C. for 1 hour. The amount of incorporated ^33P (substrate phosphorylation) was determined by scintillation measurement in a gamma radiation counter (Wallac).

[3] = target: T2, Aurora-C (Homo sapiens, UniProt Q9UQB9); assay: Aurora-C kinase assay; format: biochemical; conditions: for IC50: 3 μM ATP, 22° C., 90 min
T2 construct: made in house; host or cells: transiently transfected HEK293 cells
T2 sequence (Q9UQB9 1-309): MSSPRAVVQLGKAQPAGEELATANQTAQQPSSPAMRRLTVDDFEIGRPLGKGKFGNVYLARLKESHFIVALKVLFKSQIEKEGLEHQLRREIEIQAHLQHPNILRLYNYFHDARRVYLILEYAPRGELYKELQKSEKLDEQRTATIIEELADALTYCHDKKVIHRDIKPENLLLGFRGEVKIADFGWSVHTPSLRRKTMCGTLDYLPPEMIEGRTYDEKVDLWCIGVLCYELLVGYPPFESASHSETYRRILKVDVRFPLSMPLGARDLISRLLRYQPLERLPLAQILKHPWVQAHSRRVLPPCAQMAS
Protocol: Recombinant Aurora-C protein was expressed in transiently transfected HEK293 cells and then purified. The kinase substrate used was the biotinylated peptide having the amino acid sequence biotin-FMRLRRLSTKYRT, which was purchased from Jerini AG in Berlin.
Aurora-C [5 nM in the test mixture, test volume 5 μl] was incubated in the presence of various concentrations of test substances (0 μM and 10 measurement points within the range 0.001-20 μM in duplicate) in assay buffer [25 mM HEPES pH 7.4, 0.5 mM MnCl2, 0.1 mM Na ortho-vanadate, 2.0 mM dithiothreitol, 0.05% bovine serum albumin (BSA), 0.01% Triton X-100, 3 μM adenosine trisphosphate (ATP), 0.67 nCi/μl gamma-^33P-ATP, 2.0 μM substrate peptide biotin-FMRLRRLSTKYRT, 1.0% dimethyl sulphoxide] at 22° C. for 90 min. The reaction was stopped by adding 12.5 μl of an EDTA/detection solution [16 mM EDTA, 40 mM ATP, 0.08% Triton X-100, 4 mg/ml PVT streptavidin SPA beads (from Amersham)]. After incubation for 10 minutes, the SPA beads were pelleted by centrifugation at 1000×G for 10 minutes. Measurement took place in a PerkinElmer Topcount scintillation counter. The measured data were normalized to 0% inhibition (enzyme reaction without inhibitor) and 100% inhibition (enzyme reaction in the presence of 0.1 μM staurosporine (from Sigma)). The IC50 values were determined by means of a 4-parameter fit using the company's own software.

[4] = target: T3, CDK1/CycB (Homo sapiens, UniProt P06493); assay: CDK1/CycB kinase assay; format: biochemical; conditions: 0.5 μM ATP, histone IIIS, 22° C., 10 min
T3 construct: GST; purchased ProQinase GmbH, Freiburg; host or cells: baculovirus-infected insect cells (Sf9)
Protocol: as §1, with “Recombinant CDK1- and CycB-GST fusion proteins, purified from baculovirus-infected insect cells (Sf9), were purchased from ProQinase GmbH, Freiburg. The histone IIIS used as kinase substrate can be purchased from Sigma. CDK1/CycB (200” for “CDK2/CycE (50”
as §2, with “15 μl of each reaction mixture were loaded onto P30 filter strips (from Wallac), and non-incorporated ^33P-ATP was removed by washing the filter strips three times in 0.5% strength phosphoric acid for 10 min each time. After” for “After”

[5] = target: T4, KDR (VEGFR2) (Homo sapiens, UniProt P35968); assay: KDR kinase assay; format: biochemical; conditions: 10 μM ATP, 22° C., 45 min, HTRF
T4 construct: made in house; host or cells: E. coli
Protocol: Recombinant KDR protein was expressed in E. coli and then purified. The kinase substrate used was the biotinylated peptide having the amino acid sequence biotin-DFGLARDMYDKEYYSVG, which was purchased from Biosynthan. KDR [test volume 5 μl] was incubated in the presence of various concentrations of test substances (0 μM, and 10 measurement points within the range 0.001-20 μM in duplicate) in assay buffer [50 mM HEPES pH 7.0, 25.0 mM MgCl2, […], 0.1 mM Na ortho-vanadate, 1.0 mM dithiothreitol, 0.001% NP40, 10 μM ATP, 0.03 μM substrate peptide […], 1.0% dimethyl sulphoxide] at 22° C. for 45 min. The reaction was stopped by adding 5 μl of an EDTA/detection solution [50 mM HEPES pH 7.5, 125 mM EDTA, 0.2% BSA, 0.1 μM streptavidin-XLent (from CisBio), 2 nM PT66-Eu (from PerkinElmer)]. The fluorescence emission at 620 nm and 665 nm after excitation with light of the wavelength 350 nm was measured in a Rubystar HTRF instrument from BMG Labsystems.
The measured data (ratio of emission 665 divided by emission 620 multiplied by 10 000) were normalized to 0% inhibition (enzyme reaction without inhibitor) and 100% inhibition (all assay components apart from enzyme). The IC50 values were determined by means of a 4-parameter fit using the company's own software.

T3 sequence (P06493 whole entry): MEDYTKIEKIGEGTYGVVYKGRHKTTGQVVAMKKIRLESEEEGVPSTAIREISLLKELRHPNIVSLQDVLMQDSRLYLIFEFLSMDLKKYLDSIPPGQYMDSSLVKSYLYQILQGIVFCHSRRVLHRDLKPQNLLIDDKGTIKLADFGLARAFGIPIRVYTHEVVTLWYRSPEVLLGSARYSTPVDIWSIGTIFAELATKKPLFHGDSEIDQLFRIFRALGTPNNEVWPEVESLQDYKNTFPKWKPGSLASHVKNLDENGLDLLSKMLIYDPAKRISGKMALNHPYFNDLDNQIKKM
T3 sequence (P14635 whole entry partner): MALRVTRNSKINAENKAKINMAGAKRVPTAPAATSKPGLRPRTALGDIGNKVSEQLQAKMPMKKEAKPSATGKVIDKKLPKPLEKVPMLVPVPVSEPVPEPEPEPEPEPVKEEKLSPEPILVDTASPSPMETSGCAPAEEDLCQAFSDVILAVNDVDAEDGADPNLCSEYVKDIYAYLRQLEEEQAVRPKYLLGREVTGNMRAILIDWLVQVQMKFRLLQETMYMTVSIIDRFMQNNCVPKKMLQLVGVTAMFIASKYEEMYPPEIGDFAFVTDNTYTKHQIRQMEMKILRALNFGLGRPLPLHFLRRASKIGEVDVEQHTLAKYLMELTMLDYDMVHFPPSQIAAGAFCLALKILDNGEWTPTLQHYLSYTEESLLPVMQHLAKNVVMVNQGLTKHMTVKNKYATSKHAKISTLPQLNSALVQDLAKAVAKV
T4 sequence (P35968 20-1356, species assumed): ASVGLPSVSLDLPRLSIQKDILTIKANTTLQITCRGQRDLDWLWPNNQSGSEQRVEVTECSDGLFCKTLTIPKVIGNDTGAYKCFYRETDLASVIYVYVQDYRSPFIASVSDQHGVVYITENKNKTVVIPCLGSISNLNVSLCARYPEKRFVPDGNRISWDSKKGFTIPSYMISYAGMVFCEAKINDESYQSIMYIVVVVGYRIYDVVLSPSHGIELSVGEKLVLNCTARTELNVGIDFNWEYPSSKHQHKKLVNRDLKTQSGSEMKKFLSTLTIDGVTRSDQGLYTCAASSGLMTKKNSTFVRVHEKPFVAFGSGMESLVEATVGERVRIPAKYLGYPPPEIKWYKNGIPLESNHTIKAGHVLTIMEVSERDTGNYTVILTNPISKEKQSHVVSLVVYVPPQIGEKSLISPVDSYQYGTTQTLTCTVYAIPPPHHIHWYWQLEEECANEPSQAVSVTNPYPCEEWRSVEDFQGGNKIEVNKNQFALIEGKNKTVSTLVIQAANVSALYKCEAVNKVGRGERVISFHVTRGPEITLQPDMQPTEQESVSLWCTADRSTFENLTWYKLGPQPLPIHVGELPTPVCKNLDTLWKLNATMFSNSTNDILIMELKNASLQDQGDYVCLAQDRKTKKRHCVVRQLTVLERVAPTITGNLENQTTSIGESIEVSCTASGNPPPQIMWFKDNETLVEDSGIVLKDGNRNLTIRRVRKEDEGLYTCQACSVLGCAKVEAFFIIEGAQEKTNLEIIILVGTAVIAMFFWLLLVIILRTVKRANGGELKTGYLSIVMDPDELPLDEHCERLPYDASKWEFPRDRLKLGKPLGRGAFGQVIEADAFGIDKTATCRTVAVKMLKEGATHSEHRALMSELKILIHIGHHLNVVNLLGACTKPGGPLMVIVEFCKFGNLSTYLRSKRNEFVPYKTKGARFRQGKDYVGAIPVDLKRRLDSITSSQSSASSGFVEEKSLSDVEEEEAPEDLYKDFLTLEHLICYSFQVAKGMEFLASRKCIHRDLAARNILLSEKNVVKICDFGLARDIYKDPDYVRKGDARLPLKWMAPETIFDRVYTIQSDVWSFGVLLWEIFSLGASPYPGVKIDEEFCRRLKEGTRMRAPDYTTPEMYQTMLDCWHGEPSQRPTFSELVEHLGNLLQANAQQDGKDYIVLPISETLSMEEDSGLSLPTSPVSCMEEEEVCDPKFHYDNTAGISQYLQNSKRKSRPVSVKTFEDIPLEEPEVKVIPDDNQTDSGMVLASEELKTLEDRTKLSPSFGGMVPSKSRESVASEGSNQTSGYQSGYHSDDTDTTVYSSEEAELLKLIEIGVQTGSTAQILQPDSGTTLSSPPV

SMILES | IC50 [1] | IC50 [2] | IC50 [3] | IC50 [4] | IC50 [5] | inhibition of Aurora C kinase (in words) ([3]; summary of Tab. 1) | antiproliferative activity, MCF7 (in words) [1]
Cc1ccc(S(=O)(=O)N=S(C)c2cccc(Nc3ncc(Br)c(NC(C)C)n3)c2)cc1 (racemic) [Example 2, (RS)—S-(3-{[5-Bromo-4-(isopropylamino)pyrimidin-2-yl]amino}phenyl)-S-methyl-N-(tolylsulphonyl)sulphimide] |  | > 1000 nM |  | > 1000 nM | 200 nM |  | 
Cc1ccc(S(=O)(=O)N=S(C)c2cccc(Nc3ncc(Br)c(NC4CC4)n3)c2)cc1 (racemic) [Example 4, (RS)—S-(3-{[5-Bromo-4-(cyclopropylamino)pyrimidin-2-yl]amino}phenyl)-S-methyl-N-(tolylsulphonyl)sulphimide] |  | > 1000 nM |  | > 1000 nM | 170 nM |  | 
C[C@@H](Nc1nc(Nc2ccc(S(C)=NS(=O)(=O)c3ccc(Cl)s3)cc2)ncc1Br)C(C)(C)O (mixture of isomers) [Example 17, (RS)—S-{4-[(5-Bromo-4-{[(R)-2-hydroxy-1,2-dimethylpropyl]amino}pyrimidin-2-yl)amino]phenyl}-N-[(5-chloro-2-thienyl)sulphonyl]-S-methylsulphimide] |  |  |  |  |  |  | excellent antiproliferative activity
Cc1ccc(S(=O)(=O)N=S(C)c2ccc(Nc3nccc(NC(C)C)n3)cc2)cc1 (racemic) [Example 5, (RS)—S-(4-{[4-(Isopropylamino)pyrimidin-2-yl]amino}phenyl)-S-methyl-N-(tolylsulphonyl)sulphimide] |  | > 1000 nM | 4600 nM | > 1000 nM | 760 nM |  | 
Cc1ccc(S(=O)(=O)N=S(C)c2ccc(Nc3ncc(Br)c(NC4CC4)n3)cc2)cc1 (racemic) [Example 3, (RS)—S-(4-{[5-Bromo-4-(cyclopropylamino)pyrimidin-2-yl]amino}phenyl)-S-methyl-N-(tolylsulphonyl)sulphimide] | 340 nM |  | 90 nM | > 1000 nM | 13 nM | inhibits | 
Cc1ccc(S(=O)(=O)N=S(C)c2ccc(Nc3ncc(Br)c(N[C@H](C)C(C)(C)O)n3)cc2)nc1 (mixture of isomers) [Example 10, (RS)—S-{4-[(5-Bromo-4-{[(R)-2-hydroxy-1,2-dimethylpropyl]amino}pyrimidin-2-yl)amino]phenyl}-S-methyl-N-[(5-methyl-2-pyridyl)sulphonyl]sulphimide] |  |  |  |  |  |  | excellent antiproliferative activity

The next lines start with results.

IC50 [1] | IC50 [2] | IC50 [3] | IC50 [4] | IC50 [5] | inhibition of Aurora C kinase (in words) ([3]; summary of Tab. 1) | SMILES | antiproliferative activity, MCF7 (in words) [1]
350 nM | 10 nM | 250 nM | 31 nM | 35 nM |  | CCS(=O)(=O)N=S(C)c1ccc(Nc2ncc(Br)c(N[C@H](C)C(C)(C)O)n2)cc1 (mixture of isomers) [Example 20, (RS)—S-{4-[(5-Bromo-4-{[(R)-2-hydroxy-1,2-dimethylpropyl]amino}pyrimidin-2-yl)amino]phenyl}-N-(ethylsulphonyl)-S-methylsulphimide] | 
2200 nM |  | 36 nM | 990 nM | 35 nM |  | CC(=O)NCCNc1nc(Nc2ccc(S(C)=NS(=O)(=O)c3ccc(C)cc3)cc2)ncc1Br (racemic) [Example 23, (RS)—S-{4-[(4-{[2-(Acetylamino)ethyl]amino}-5-bromopyrimidin-2-yl)amino]-phenyl}-S-methyl-N-(tolylsulphonyl)sulphimide] | 
 | > 1000 nM |  | > 1000 nM | 120 nM |  | Cc1ccc(S(=O)(=O)N=S(C)c2ccc(Nc3ncc(Br)c(Nc4ccccc4)n3)cc2)cc1 (racemic) [Example 6, (RS)—S-{4-[(4-Anilino-5-bromopyrimidin-2-yl)amino]phenyl}-S-methyl-N-(tolylsulphonyl)sulphimide] | 
 | > 1000 nM | 680 nM | > 1000 nM | 43 nM |  | Cc1ccc(S(=O)(=O)N=S(C)c2ccc(Nc3ncc(Br)c(NCCO)n3)cc2)cc1 (racemic) [Example 7, (RS)—S-[4-({5-Bromo-4-[(2-hydroxyethyl)amino]pyrimidin-2-yl}amino)phenyl]-S-methyl-N-(tolylsulphonyl)sulphimide] | 
